Results published in US12642784B2, “ANAVEX2-73 for the treatment of genetic neurodevelopmental disorders” (ANAVEX LIFE SCIENCES CORP., priority 2019, dated 2026).

Experiments:
[1] = tested on: subject, diagnosed with Rett Syndrome; assay: Example 6: liquid formulation in a subject with Rett Syndrome; type: in vivo, human; settings: 1 mL of liquid formulation (0.2 mg/mL)
Description: A subject, diagnosed with Rett Syndrome is administered 1 mL of a liquid formulation (0.2 mg/mL).

[2] = tested on: subject diagnosed with Rett Syndrome; assay: Example 1: daily liquid formulation in a subject with Rett Syndrome, follow-up questionnaire; type: in vivo, human; settings: 5 mL of 0.2 mg/mL liquid formulation daily, total daily dose 1 mg
Description: A subject diagnosed with Rett Syndrome was daily administered 5 mL of a liquid formulation containing A2-73 at a concentration of 0.2 mg/mL, for a total daily dose of 1 mg of […]2-73.

[3] = tested on: healthy male volunteers; settings: cited from earlier work
[4] = tested on: glutamate and GABA biomarkers; assay: Example 5: plasma glutamate and GABA biomarkers; type: in vivo, human; settings: Week 0 vs. Week 7; Wilcoxon Z=−1.992, p (2-tailed)=0.046
From the text: In one aspect, the method further comprises measuring, or having measured or obtained a baseline plasma glutamate and/or gamma aminobutyric acid (GABA) level in the subject prior to treatment with ANAVEX2-73 as described herein, and measuring or having measured or obtained at least a second plasma glutamate and/or gamma aminobutyric acid (GABA) level following a period of treatment with ANAVEX2-73 as described herein. Measurement of a plasma glutamate and/or gamma aminobutyric acid (GABA) level comprises withdrawing a whole blood sample from the subject, separating the blood plasma from remaining whole blood components such as by centrifuging the sample, isolating the blood plasma, and measuring the amount of glutamate and/or gamma aminobutyric acid (GABA) in the blood plasma using any one of several techniques known in the art. […]
(§1) For efficacy, the following parameters were measured in the female subjects: Rett Syndrome Behavior Questionnaire (RSBQ), Clinical Global Impressions (CGI-I), hand behaviors (RSBQ), breathing problems (RSBQ), waking during sleep (RSBQ), and glutamate biomarker, and GABA biomarkers.
(§2) Evaluation of the efficacy was measured as a comparison from baseline (week 0), week 4, and to end of treatment (week 7). Blood plasma samples were analyzed at week 0 and at week 7 to measure the levels of glutamate and GABA biomarkers. […]

[5] = tested on: female subjects diagnosed with Rett Syndrome; assay: Example 5: 7-week treatment of Rett Syndrome subjects, RSBQ and CGI-I; type: in vivo, human
From the text: One useful measure of improvement for one or more symptoms of a genetic neurodevelopmental disorder may be determined using a behavioral questionnaire that interrogates a primary caregiver of a subject at multiple time points during a course of treatment, regarding multiple behavioral indicators of the disorder. For example, a Rett Syndrome Behavior Questionnaire (RSBQ) may comprise multiple, e.g., at least five but optionally 10 or more, such as 12, 15, 20, 25, 30, 35, 40, 45 or 50 or more behavioral indicators which ask for a caregiver's observations of the subject regarding the frequency of specific episodes or occurrences of each indicator. […]
Another useful measurement for one or more symptoms of a genetic neurodevelopmental disorder is a Clinical Global Impression-Improvement scale (CGI-I). This scale measures the improvement or worsening of the subject's condition relative to a baseline state before administration of the dosage form comprising a therapeutically acceptable amount of ANAVEX2-73, as assessed by one or more healthcare professionals. […]
as §1, §2

[6] = type: physicochemical
From the text: Dosage formulations used in the disclosed methods comprise a therapeutically effective amount of ANAVEX2-73, the crystalline HCl salt of tetrahydro-N,N-dimethyl-2,2-diphenyl-3-furanmethanamine, or tetrahydro-N,N-dimethyl-2,2-diphenyl-3-furanmethanamine hydrochloride (IUPAC name: 1-(2,2-diphenyloxolan-3-yl)-N,N-dimethylmethanamine hydrochloride). […] Thus ANAVEX2-73 (used herein to refer to the HCl salt or the free base) is highly amenable to incorporation in the dosage formulations disclosed herein. For example, ANAVEX2-73 as either the HCl salt or the free base has a relatively low molecular weight (<400 Da), and is thus well suited for transmucosal or transdermal delivery, or rapid oral delivery. ANAVEX2-73 has a pKa around 8-9, which also makes it well-suited for transmucosal delivery. Therapeutically effective doses of ANAVEX2-73 are well suited for various thin film formulations, including oral and transdermal thin film formulations.

[7] = single oral dose, healthy male volunteers

| SMILES | CGI-I index [1] | Rett Syndrome Behavior Questionnaire (RSBQ) [1] | motor skills and cognition according to follow-up questionnaire [2] | serious adverse events ([3]; single ascending oral dose, 22 healthy male volunteers) | maximum tolerable dose (MTD) [3, 7] | minimum intolerable dose (MID) [3, 7] | levels of glutamate biomarker in plasma [4] | improvement in the RSBQ ([5]; all six subjects, week 0 to week 7, Wilcoxon Z=−2.207, p (2-tailed)=0.027) | RSBQ and CGI-I after 7 weeks ([5]; correlated, p=0.003) | parameters measured (FIG. 1, FIG. 2A-D, FIG. 3A-E) ([5]; orally administered liquid formulation, 7 weeks) | solubility in organic solvents [6] |
| --- | --- | --- | --- | --- | --- | --- | --- | --- | --- | --- | --- |
| CN(C)CC1CCOC1(c1ccccc1)c1ccccc1.Cl (centres unmarked) [ANAVEX2-73, tetrahydro-N,N-dimethyl-2,2-diphenyl-3-furanmethanamine hydrochloride] | improvement | improvement | improvement | No serious adverse events | 55 mg | 60 mg | decreased significantly | over 30% | reduction | vast improvement | – |
| CN(C)CC1CCOC1(c1ccccc1)c1ccccc1 (centres unmarked) [free base form of ANAVEX2-73, tetrahydro-N,N-dimethyl-2,2-diphenyl-3-furanmethanamine] | – | – | – | – | – | – | – | – | – | – | soluble in almost all organic solvents |
